In patent US20180073018A1, “COMPOSITIONS AND METHODS FOR SPECIFIC REACTIVATION OF HIV LATENT RESERVOIR” (priority 2015, published 2018):

Columns and labels:
Assay type in all cases: cell-based
[1] = tested on: HIV-1 LTR promoter; assay: dCas9-VPH/msgRNA (or SAHA) reactivation of latent LTR-eLuc reporter in TZM-bI cells; details: TZM-bI, transient transfection or lentivirus infection, 2 days
Method: Cells were plated in 96-well plate and the indicated MS2-gRNAs were cotransfected by Lipofectamine 3000 (FIG. 3A) or coinfected by lentiviruses (FIG. 3B, MOI=50) with pMSCV-LTR-dCas9-VP64-BFP plus pLV-MS2-p65-HSF1-GFP. Two days later, OneGlo luminescence assay was performed. The SIV MS2-gRNA-D was used as negative control. […] The gRNA-J has no effect due to 2 nucleotides mismatch to the LTR sequence from TZM-bI cells.
FIG. 8A, FIG. 8B, FIG. 8C, and FIG. 8D, depict the results of experiments of screening of MS2-mediated sgRNAs (msgRNAs) targeting the HIV-1 long terminal repeat (LTR) in the dCas9-synergistic activation mediator (SAM) system. FIG. 8A is a schematic illustration of SAM-VPH complex derived from dCas9-VP64 (V) and MS2-p65-HSF1 (PH) with msgRNAs. FIG. 8B is a graph showing similar activation of transfected EcoHIV-eLuc reporter by inducible (TRE) or constitutive (LTR) dCas9-VP64 expression in HEK293T cells. FIG. 8C is a graph showing similar reactivation of latent HIV-LTR-eLuc reporter in TZM-bI cells after either transient plasmid transfection by Lipofectamine 3000 or stable infection by lentivirus. […] The gRNA-J has no effect due to 2 nucleotides mismatch to the LTR sequence from TZM-bI cells. […]
FIG. 9A and FIG. 9B: TZM-bI cells were infected with dCas9-VPH and indicated msgRNA lentiviruses at 1 or 10 MOI and luciferase activity was measured at 2-21 days post-infection (dpi). […]
FIG. 12A, FIG. 12B, FIG. 12C: The dCas9-VPH stable TZM-bI cells were treated with SAHA or infected with indicated msgRNAs lentivirus for 2-4 d before luminescence reporter assay (FIG. 12A) and CELLTITER-GLO® luminescent cell viability assay (FIG. 12B). […]
Experiments were conducted to compare reactivation of HIV-LTR luciferase reporter in TZM-BI cells induced by gRNA/dCas9-VP64/MS2-p65-HSF1/delivered by either transient plasmid transfection (FIG. 3A) or stable lentivirus infection (FIG. 3B). […] Two days later, OneGlo luminescence assay was performed. […]

[2] = tested on: HIV-1 LTR promoter; assay: dCas9-VP64/MS2-p65-HSF1 (SAM, dCas9-VPH) with MS2-sgRNA: EcoHIV-eLuc reporter assay in HEK293T cells; details: MS2-sgRNA/dCas9-VP64/MS2-p65-HSF1, pEcoHIV-NL4-3-eLuc, MS2-p65-HSF1 only = 1.00
Excerpt: FIG. 2A, FIG. 2B, and FIG. 2C, depict results of experiments comprising HIV-1 LTR-MS2-gRNA screening for LTR reactivation by SAM complex dCas9-VP64/MS2-p65-HSF1 in HEK293T cells. FIG. 2A and FIG. 2B depict a schematic of complex formation at the target site, where the complex comprises MS2-binding gRNA, dCas9-VP64, and MS2-p65-HSF1. FIG. 2C is a graph depicting the results of experiments investigating the reactivation of HIV-LTR induced by the various MS2-binding gRNA using pEcoHIV-NL4-3-eLuc reporter assay. […]
(§1) Cells were cultured in a 96-well plate and transfected or transduced with indicated vectors. To examine the eLuc reporter activity, the cell lysate was prepared using the ONE-Glo luciferase assay system (Promega) and luminescence was measured in a 2104 ENVISION® Multilabel Reader (PerkinElmer). […]
Thus, the newly-developed MS2-mediated SAM system was applied (FIG. 8A), which combined dCas9-VP64 with MS2-p65-HSF1 clustered trans-activators, designated dCas9-VPH (Konermann et al., 2015, Nature 517:583-8). […] To determine if dCas9-VPH/msgRNAs induced a better reactivation of HIV-1 latency, HIV-latent TZM-bI cells was cotransfected or cotransduced with dCas9-VPH and indicated msgRNAs (FIG. 8C) and the latency-reversing capability was measured. […]

[3] = tested on: HIV-1 LTR promoter; assay: dCas9-VP64/sgRNA reactivation of latent LTR-luciferase reporter in TZM-bI cells; details: sgRNA/dCas9-VP64 cotransfection, 3 days, relative to empty sgRNA control
Excerpt: FIG. 1A, FIG. 1B, and FIG. 1C, depict results of experiments comprising HIV-1 LTR-gRNA screening for dCas9-VP64-induced reactivation of latent LTR-luciferase reporter in TZM-bI cells. FIG. 1A is a schematic illustration depicting HIV-gRNA target sites. FIG. 1B is a schematic depicting gRNA/dCas9-VP64 binding to a target region of HIV-LTR that drives luciferase expression in TZM-bI cells. FIG. 1C depicts the results of experiments investigating the reactivation of HIV-LTR (as measured by luciferase reporter) induced by the various gRNAs. […] After 3 days, the luminescence of the cell lysate was measured with OneGlo luminescence kit. […]
Cultured cells were transfected using lipofectamine3000 transfection or lentivirus infection. The firefly-luciferase reporter assay was used using Envision multiplate reader. Treated and controls were imaged using fluorescent microscopy and/or were analyzed using flow cytometry. […]
as §1

Substance | reactivation of HIV-LTR-luciferase reporter (in words) [1] | MS2-sgRNA HEK293T Fold (EcoHIV-eLuc reporter) [2] | sgRNA TZM-bI Fold (LTR-luciferase reporter) [3]
MS2-p65-HSF1: MS2 bacteriophage coat protein fused to p65 and HSF1 transactivation domains (SEQ ID NO: 108) | did not influence the basal activity | – | –
LTR-P | – | 1.32 Fold | 1.15 Fold
